The record followed here is patent US11365208B2, “Silylated derivatives of resveratrol and the use thereof in neurodegenerative, neurological or inflammatory diseases” (Consejo Superior De Investigaciones Cientificas, priority 2016, dated 2022).

The test system of one experiment is IL-6. The experiment can be described thus: IL-6 in supernatant of LPS-stimulated RAW macrophages (ELISA). The following applies: 10 μM, 24 h. The experiment is classed as cell-based. As to the method: (§1) To determine the production of cytokines, 5×10^5 RAW 264.7 macrophages were seeded in 24-well plates (0.5 ml per well). The compounds to be tested were then added (10 μM), and the macrophages were either stimulated or not through the addition of LPS (1 μg/ml) to the culture medium. After 24 hours, the levels of IL-6 and TNF-α were measured in the supernatants by ELISA using the capture and biotinylated antibodies from BD PharMingen and PrepoTech following known protocols. The levels of NO in the supernatants at 24 hours were measured indirectly by determining the nitrite concentration in the medium using the Griess reagent according to established protocol. A minimum of two independent experiments and three replicates per experiment were performed for each measured value. The values are expressed as the mean±standard deviation.
(§2) In the previous assay, the levels of various inflammation parameters were measured (TNF-α, NO, and IL-6) by ELISA after treatment with RES or with some of the compounds of the invention (2, 3, 5, 6, 8, and 9).
Background: An ELISA detects its analyte on a solid surface through an enzyme-linked reagent.

The subject of the next experiment is NO. The experiment can be described thus: NO (nitrite, Griess reagent) in supernatant of LPS-stimulated RAW macrophages. The experiment is classed as cell-based. The following applies: 10 μM, 24 h. How it is done:
as §1, §2
(Nitrite, measured by Griess reagent, commonly stands in for NO production.)

Experiment [1] concerns mouse model of multiple sclerosis. As to the kind of experiment: Experimental allergic encephalomyelitis (EAE) mouse model of multiple sclerosis. The following applies: for motor capacity: preventive regimen, 20 mg/kg intraperitoneal twice a week for 3 weeks from day 5 after induction; for clinical classification of the motor capacity: 20 mg/kg intraperitoneal twice a week for 2 weeks from day 12 after induction, especially days 20-30. The experiment is classed as in vivo. As to the method:
Compound 15 was investigated as a possible treatment in a mouse model of multiple sclerosis. The compound resveratrol (RES) was added as a reference. An experimental allergic encephalomyelitis model, EAE, was used as an animal model of multiple sclerosis.
In this model, mice are injected with myelin oligodendrocyte glycoprotein (MOG, MOG35-55, is the 21 amino acid peptide corresponding to the sequence from positions 35 to 55 of the MOG glycoprotein) and virus pertussis (pertussis toxin, PTX) in order to induce the disease. Two days after induction, a new dose of the virus was given again, because some mice were not developing symptoms of EAE. Once the damage was caused, the mice were treated with RES, compound 15, or vehicle, and we studied the effect thereof on the mouse on the basis of different motor parameters on a scale from 0 normal to 4 incapable.
• Vehicle without tween-80 emulsifier (control EAE without T) • Vehicle with tween-80 emulsifier (EAE-T control) • Preventive RES (without tween-80 emulsifier) (RES-PREV) • Therapeutic RES (no tween-80 emulsifier) (RES-TERAP) • Preventive compound 15 (with tween-80 emulsifier) (compound 15-PREV) • Therapeutic compound 15 (with tween-80 emulsifier) (compound 15-TERAP)
The (intraperitoneal) administration of the compounds (resveratrol, compound 15, and vehicle, with or without tween-80) is started 5 days after induction. 250 μL of the compound in question (20 mg/kg) were injected twice a week and the treatment was maintained for 3 weeks. The treatment was then stopped, but the state of the mice was monitored for another 3 weeks (47 days total).
The (intraperitoneal) administration of the compounds (resveratrol, compound 15, and vehicle, with or without tween-80) is started 12 days after induction. 250 μL of the compound in question (20 mg/kg) were injected twice a week and the treatment was maintained for 2 weeks. The treatment was then stopped, but the state of the mice was monitored for another 3 weeks (47 days total).

Experiment [2] deals with SH-SY5Y neuroblastoma cell line. As to the kind of experiment: Neuroprotection assay: SH-SY5Y viability after H2O2 damage (MTT). The following applies: 10 μM, H2O2 100 μM, 24 h, 1% DMSO. The class given is cell-based. As to the method: The SH-SY5Y neuroblastoma cell line was cultured in petri dishes pre-treated with collagen (100 ng/ml) with F12 medium supplemented with penicillin/streptomycin and 10% inactivated fetal bovine serum.
(§3) Cell viability assays with neurons were prepared in 96-well plates pre-treated with collagen by seeding 20,000 cells/well in a volume of 100 μL and incubating the cells for 24 h before the addition of the compounds. The compounds to be tested were dissolved in DMSO and added in three different concentrations (1, 10, and 100 μM) in order to determine their toxicity. The final percentage of DMSO in each well was adjusted to 1%. The cell viability was evaluated 24 h after the addition of the compounds by means of the MTT assay according to the manufacturer's method. Mean values and standard deviations were calculated from at least eight different measurements from several independent experiments.
For the neuroprotection assay, the neurons were cultured and seeded in the same manner as for the cell viability assay. […] The cell viability was evaluated 24 h after the addition of the compounds by means of the MTT assay according to the manufacturer's method. Mean values and standard deviations were calculated from at least eight different measurements from several independent experiments. […]

The next experiment has as its system zebrafish (Danio rerio). The experiment can be described thus: PTZ-induced neurotoxicity model in zebrafish larvae, AChE activity. The class given is in vivo. The following applies: 5 dpf larvae, 10 μM, 1 h pre-treatment then 6 h with 5 mM PTZ. How it is done: The objective of this assay was to analyze the protective effect of various derivatives of resveratrol in a model of neurotoxicity induced by the neurotoxin pentylenetetrazole (PTZ). As an experimental model, the zebrafish (Danio rerio) was used to study the effect of the compounds on acetylcholinesterase activity (AChE) in larvae at 5 days post-fertilization (dpf).
Zebrafish embryos were seeded in 50 ml of dilution water (AD) in a Petri dish and grown to 5 dpf (larval stage). […] Next, the larvae were transferred using a Pasteur pipette to a 24-well microplate, so that each well contained five larvae, making ten replicates per condition. First, the pre-treatment of the 5 dpf larvae was performed. For this, the larvae were incubated at 26±1° C. for 1 hour in a volume of 2 ml of AD for the two control groups (Control and Control+PTZ), of physostigmine (Phys) 20 μM, which is a commercial inhibitor of the enzyme AChE for the Phys group, and of the test compounds at a concentration of 10 μM. A medium exchange was then carried out, and the larvae were incubated with the compounds in combination with 5 mM PTZ for 6 hours at 26±1° C. After this incubation period, all of the larvae were examined, and it was determined that the general state of the larvae was totally normal, without any visible anomaly or anomalous behavior. Finally, the larvae were processed for the analysis of the AChE activity.
In order to determine the AChE levels, larvae processing was carried out according to the established technical study protocol once the experimental period was completed. The larvae were homogenized mechanically, and the samples were centrifuged to obtain the supernatant, which were used to determine the levels of the AChE enzyme as a function of the treatments administered. In addition, the determination of total protein of each experimental group was carried out according to the established technical study protocol. Finally, the AChE levels determined in the control group were taken as a reference measurement and deemed to be 100%.

Experiment [3] concerns mouse model of Huntington's disease. The experiment can be described thus: 3-nitro-propionic acid (3NP) mouse model of Huntington's disease. The class given is in vivo. The following applies: 3NP mice. As to the method: Compound 15 was investigated as a possible treatment in a mouse model of Huntington's disease. The compound resveratrol (RES) was added as a reference.
In this model, increasing amounts of 3-nitro-propionic acid (3NP) are injected into the mice, causing lesions with a phenotype very similar to that of Huntington's disease, both mechanically and pathologically. Once the damage was caused, the mice were treated with RES, compound 15, or vehicle, and we studied the effect thereof on the mouse on the basis of different parameters. Behavioral studies (rotarod test), an assessment was made of motor capacity (tabulated on a scale of 0 normal to 4 incapable, in several parameters such as general mouse dystonia, ability to flip over, and the ability to explore), weight was monitored, and subsequent measurements were taken such as of the inhibition of pro-inflammatory cytokines in plasma or brain.
The design of the experiment is shown in FIG. 16. #=Behavioral study and rotarod test; ϕ Administration of the compound; W=weeks of age of the mice; D=Day of the experiment.

The next experiment has as its system TNF-α. As to the kind of experiment: TNF-α in supernatant of LPS-stimulated RAW macrophages (ELISA). The experiment is classed as cell-based. To be noted: 10 μM, 24 h. How it is done: as §1, §2
For another experiment, the system named is RAW 264.7 macrophages. The experiment can be described thus: Inflammation assay: RAW macrophage viability after LPS (MTT). The experiment is classed as cell-based. The following applies: 10 μM, LPS 100 ng/ml, 24 h, 1% DMSO. As to the method:
RAW 264.7 macrophages were cultured in P75 with high-glucose DMEM supplemented with penicillin/streptomycin and 10% inactivated fetal bovine serum.
as §3, with “The cell viability” for “Cell viability”, “with RAW macrophages” for “with neurons”, “plates” for “plates pre-treated with collagen”, “seeding 25,000” for “seeding 20,000”, “for 4” for “for 24”
For the testing of mitigation of damage caused by the addition of LPS, the RAW 264.7 macrophages were cultured according to the procedure described above. […] The cell viability was evaluated 24 h after the addition of the compounds by means of the MTT assay according to the manufacturer's method. Mean values and standard deviations were calculated from at least eight different measurements from several independent experiments.

Consider `Oc1ccc(C=Cc2cc(O)cc(O)c2)cc1` [RES, resveratrol], for which the “IL-6 level in culture medium” value in the experiment with IL-6 is reported as “significantly decreases”. In the experiment on NO, the “NO level in culture medium” value is “significantly decreases”. For the same compound, the motor capacity result in experiment [1] is recorded as “does reduce damage on a motor level”. For the same compound, the “clinical classification of the motor capacity” value in experiment [1] (therapeutic regimen) is listed as “do not appear to improve”. Further, the cell viability recovered entry is recorded as “up to 50%” in experiment [2] and “up to 62%” in the experiment with RAW 264.7 macrophages. For the same compound, the “AChE activity relative to control (neuroprotective effect)” value (“AChE activity relative to control” for short) with zebrafish (Danio rerio) was “lower neuroprotective effect”. Besides, the “improvement of the phenotype caused by 3NP, compared with compound 15” value in experiment [3] is “differences between compound 15 and RES are not great”. In addition, in the experiment with TNF-α, the “TNF-α level in culture medium” value is given as “significantly decreases”.
Consider `CC[Si](CC)(CC)Oc1ccc(/C=C/c2cc(O)cc(O[Si](CC)(CC)CC)c2)cc1` [compound 8], for which the “AChE activity relative to control” value in the experiment on zebrafish (Danio rerio) is on record as “lower neuroprotective effect similar to that observed for resveratrol”.
Still for that read-out and setting: to `CC[Si](CC)(CC)Oc1cc(/C=C/c2ccc(O)cc2)cc(O[Si](CC)(CC)CC)c1` [compound 9] belongs “significantly prevent the decrease in AChE activity induced by PTZ”; to `CCCCCCCC(=O)OCC1OC(Oc2cc(/C=C/c3ccc(O[Si](C(C)C)(C(C)C)C(C)C)cc3)cc(O[Si](C(C)C)(C(C)C)C(C)C)c2)C(O)C(O)C1O` (stereo not drawn) [compound 14, 3,4′-O-ditriisopropylsilyl-5-(-6-octanoyl)glucosyl resveratrol], “lower neuroprotective effect similar to that observed for resveratrol”.
As for `CCCCCCCC(=O)OCC1OC(Oc2ccc(/C=C/c3cc(O[Si](C(C)C)(C(C)C)C(C)C)cc(O[Si](C(C)C)(C(C)C)C(C)C)c3)cc2)C(O)C(O)C1O` (stereo not drawn) [compound 15, 3,5-O-ditriisopropylsilyl-4′-(6-octanoyl)glucosyl resveratrol], in experiment [1] (20 mg/kg each, dose of RES in μmol/kg about 3× dose of compound 15), the “effectiveness relative to RES on a molar dose basis” value is “much more effective”. Also, in experiment [1], the motor capacity entry is “does not have a great effect on motor capacity”. In experiment [1] (therapeutic regimen), the “clinical classification of the motor capacity” value is recorded as “improves the clinical classification of the motor capacity of the mice compared to the control”. In addition, the “clinical classification of the motor capacity after end of administration” value in experiment [1] (therapeutic regimen, days 30-47, administration interrupted) is reported as “improvement in the clinical classification was maintained”. Also, the “AChE activity relative to control” value with zebrafish (Danio rerio) is given as “significantly prevent the decrease in AChE activity induced by PTZ”. In experiment [3], the “severity of the motor lesions (motor capacity)” value was “decreasing the severity of the motor lesions” and the “weight of the animals” value is on record as “increasing the weight of the animals”. The “levels of pro-inflammatory cytokines such as IL-6” value in experiment [3] (plasma) is recorded as “decreasing”.
Consider `CCCC(=O)Oc1ccc(/C=C/c2cc(O[Si](CC)(CC)CC)cc(O[Si](CC)(CC)CC)c2)cc1` [compound 17, 3,5-O-triethylsilyl-4′-butanoyl resveratrol], for which, in the experiment with zebrafish (Danio rerio), the “AChE activity relative to control” value is listed as “lower neuroprotective effect similar to that observed for resveratrol”.
